# Data taken from US7473790B2 (Pfizer Inc., priority 2003, dated 2009).
# Molecular target: T1, HCV polymerase (Hepatitis C virus genotype 1b, UniProt P26663)
# T1 construct: 2.5 pmoles (0.15 μg) HCV polymerase protein in a final volume of 75 μL
# Test: HCV polymerase primer/template-directed transcription assay (32P-GTP incorporation, filter binding)
# Assay type: biochemical
# Conditions: recombinant HCV polymerase; 30 minutes at 30° C.; concentration giving 50% inhibition of polymerase-directed transcription; read-out: IC50
# Procedure, shortened: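 IC50s come from triplicate cpm, refit with an enzyme-concentration (30 nM) correction when under 200 nM. Reactions ran 30 min at 30° C in Tris pH 7.2 with MgCl2, 1 μM GTP spiked with α-32P-GTP, biotin-dG12 primer and poly(rC)300 template, with 1% DMSO. Incorporated label was collected on DE filtermats and counted.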
# T1 sequence (P26663 2420-3010): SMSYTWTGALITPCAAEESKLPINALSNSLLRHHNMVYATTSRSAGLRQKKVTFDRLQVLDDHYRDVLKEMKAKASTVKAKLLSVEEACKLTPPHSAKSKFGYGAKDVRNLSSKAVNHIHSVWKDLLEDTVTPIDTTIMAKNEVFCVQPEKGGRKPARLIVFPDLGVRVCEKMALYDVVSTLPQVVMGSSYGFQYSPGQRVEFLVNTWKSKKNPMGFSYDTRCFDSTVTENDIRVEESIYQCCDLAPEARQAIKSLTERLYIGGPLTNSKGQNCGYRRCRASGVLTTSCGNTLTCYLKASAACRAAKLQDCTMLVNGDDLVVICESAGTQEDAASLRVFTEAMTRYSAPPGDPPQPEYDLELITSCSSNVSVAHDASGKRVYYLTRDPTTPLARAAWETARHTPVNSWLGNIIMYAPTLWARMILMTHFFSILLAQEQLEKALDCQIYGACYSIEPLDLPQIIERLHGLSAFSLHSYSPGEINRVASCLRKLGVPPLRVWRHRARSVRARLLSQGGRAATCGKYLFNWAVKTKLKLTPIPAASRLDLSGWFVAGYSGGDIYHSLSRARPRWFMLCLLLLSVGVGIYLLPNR
row,SMILES,IC50
1,"COc1ccc(CCC2(C3CCCC3)CC(O)=C(Cc3nc(C)cc(=O)[nH]3)C(=O)O2)cc1Cl (centres unmarked) [B(54), 2-({6-[-(3-chloro-4-methoxyphenyl)ethyl]-6-cyclopentyl-4-hydroxy-2-oxo-5,6-dihydro-2H-pyran-3-yl}methyl)-6-methylpyrimidin-4(3H)-one]",300 nM
2,"COc1ccc(CC2=C(O)CC(CCc3ccc(OC)c(Cl)c3)(C3CCCC3)OC2=O)cc1 (centres unmarked) [B(17), 6-[2-(3-Chloro-4-methoxy-phenyl)-ethyl]-6-cyclopentyl-4-hydroxy-3-(4-methoxy-benzyl)-5,6-dihydro-pyran-2-one]",1100 nM
3,"O=C1CC(=O)OC(CCC2CCCCC2)(C2CCCC2)C1 (centres unmarked) [A(44), 6-(2-Cyclohexyl-ethyl)-6-cyclopentyl-dihydro-pyran-2,4-dione]",68300 nM
4,"CCc1cc(CCC2(C3CCCC3)CC(O)=C(Cc3nc4ncc(Cl)cn4n3)C(=O)O2)c(OC)cc1O (racemic) [A(211), (−)-3-[(6-chloro[1,2,4]triazolo[1,5-a]pyrimidin-2-yl)methyl]-6-cyclopentyl-6-[2-(5-ethyl-4-hydroxy-2-methoxyphenyl)ethyl]-4-hydroxy-5,6-dihydro-2H-pyran-2-one]",4 nM
5,"CCc1cc(CCC2(C3CCCC3)CC(O)=C(Cc3nc4nc(C)cc(C)n4n3)C(=O)O2)c(OC)cc1O (single isomer, unassigned) [A(154), 6-Cyclopentyl-3-(5,7-dimethyl-[1,2,4]triazolo[1,5-a]pyrimidin-2-ylmethyl)-6-[2-(5-ethyl-4-hydroxy-2-methoxy-phenyl)-ethyl]-4-hydroxy-5,6-dihydro-pyran-2-one]",5 nM
6,"CCc1cc(CCC2(C3CCCC3)CC(O)=C(Cc3nc4ncc(Cl)cn4n3)C(=O)O2)ccc1O (racemic) [A(271), 3-(6-Chloro-[1,2,4]triazolo[1,5-a]pyrimidin-2-ylmethyl)-6-cyclopentyl-6-[2-(3-ethyl-4-hydroxy-phenyl)-ethyl]-4-hydroxy-5,6-dihydro-pyran-2-one]",6 nM
7,"COc1ccc(CCC2(C3CCCC3)CC(O)=C(Cc3ccc(S(C)(=O)=O)cc3)C(=O)O2)cc1Cl (centres unmarked) [B(21), 6-[2-(3-Chloro-4-methoxy-phenyl)-ethyl]-6-cyclopentyl-4-hydroxy-3-(4-methanesulfonyl-benzyl)-5,6-dihydro-pyran-2-one]",400 nM
8,"COc1cc(OC)c(CCC2(C3CCCC3)CC(O)=C(Sc3nnc(O)n3C(C)C)C(=O)O2)cc1Cl (centres unmarked) [C(80), 6-[2-(5-chloro-2,4-dimethoxyphenyl)ethyl]-6-cyclopentyl-4-hydroxy-3-[(5-hydroxy-4-isopropyl-4H-1,2,4-triazol-3-yl)thio]-5,6-dihydro-2H-pyran-2-one]",31 nM
9,"O=C1CC(=O)OC(CCCCC2CCCCC2)(C2CCCC2)C1 (centres unmarked) [A(57), 6-(4-Cyclohexyl-butyl)-6-cyclopentyl-dihydro-pyran-2,4-dione]",6300 nM
10,"CCc1cc(CCC2(C3CCCC3)CC(O)=C(Cc3nc4ncc(Cl)cn4n3)C(=O)O2)c(OC)cc1O (racemic) [A(210), 3-[(6-chloro[1,2,4]triazolo[1,5-a]pyrimidin-2-yl)methyl]-6-cyclopentyl-6-[2-(5-ethyl-4-hydroxy-2-methoxyphenyl)ethyl]-4-hydroxy-5,6-dihydro-2H-pyran-2-one]",2 nM
11,"CC(C)Oc1ccc(CCC2(C3CCCC3)CC(O)=C(Sc3ncccn3)C(=O)O2)cc1F (centres unmarked) [C(11), 6-Cyclopentyl-6-[2-(3-fluoro-4-isopropoxy-phenyl)-ethyl]-4-hydroxy-3-(pyrimidin-2-ylsulfanyl)-5,6-dihydro-pyran-2-one]",190 nM
12,"O=C1CC(=O)OC(CCc2ccc(OC(F)F)cc2)(C2CCCC2)C1 (centres unmarked) [A(58), 6-Cyclopentyl-6-[2-(4-difluoromethoxy-phenyl)-ethyl]-dihydro-pyran-2,4-dione]",6500 nM
13,"CC1(C)C(=O)Oc2ccc(CCC3(C4CCCC4)CC(=O)CC(=O)O3)cc21 (centres unmarked) [A(68), 6-Cyclopentyl-6-[2-(3,3-dimethyl-2-oxo-2,3-dihydro-benzofuran-5-yl)-ethyl]-dihydro-pyran-2,4-dione]",3400 nM
14,"CC(C)(C#N)c1ccc(CCC2(C3CCCC3)CC(O)=C(Cc3cn[nH]c3)C(=O)O2)cc1F (centres unmarked) [B(93), 2-(4-{2-[2-cyclopentyl-4-hydroxy-6-oxo-5-(1H-pyrazol-4-ylmethyl)-3,6-dihydro-2H-pyran-2-yl]ethyl}-2-fluorophenyl)-2-methylpropanenitrile]",90 nM
15,"CC(C)(C#N)c1ccc(CCC2(C3CCCC3)CC(=O)C(Cc3nc4ncc(Cl)cn4n3)C(=O)O2)cc1F (centres unmarked) [A(111), 2-(4-{2-[5-(6-Chloro-[1,2,4]triazolo[1,5-a]pyrimidin-2-ylmethyl)-2-cyclopentyl-4,6-dioxo-tetrahydro-pyran-2-yl]-ethyl}-2-fluoro-phenyl)-2-methyl-propionitrile]",2 nM
16,"CC(C)(C)c1cc(CCC2(C3CCCC3)CC(=O)CC(=O)O2)ccc1O (centres unmarked) [A(02), 6-[2-(3-tert-Butyl-4-hydroxy-phenyl)-ethyl]-6-cyclopentyl-dihydro-pyran-2,4-dione]",2400 nM
17,"Cc1cc(C)n2nc(CC3=C(O)CC(CCc4ccc(O)c(CO)c4)(C4CCCC4)OC3=O)nc2n1 (centres unmarked) [A(193), 6-Cyclopentyl-3-(5,7-dimethyl-[1,2,4]triazolo[1,5-a]pyrimidin-2-ylmethyl)-4-hydroxy-6-[2-(4-hydroxy-3-hydroxymethyl-phenyl)-ethyl]-5,6-dihydro-pyran-2-one]",98 nM
18,"COc1cc(OC)c(CCC2(C3CCCC3)CC(O)=C(Sc3nc4cc(Cl)ccc4n3C(C)C)C(=O)O2)cc1Cl (centres unmarked) [C(73), 6-[2-(5-Chloro-2,4-dimethoxyphenyl)ethyl]-3-[(5-chloro-1-isopropyl-1H-benzimidazol-2-yl)thio]-6-cyclopentyl-4-hydroxy-5,6-dihydro-2H-pyran-2-one]",35 nM
19,"CCC(C#N)(CC)c1ccc(CCC2(C3CCCC3)CC(=O)C(Cc3nc4nc(C)cc(C)n4n3)C(=O)O2)cc1F (centres unmarked) [A(112), 2-(4-{2-[2-Cyclopentyl-5-(5,7-dimethyl-[1,2,4]triazolo[1,5-a]pyrimidin-2-ylmethyl)-4,6-dioxo-tetrahydro-pyran-2-yl]-ethyl}-2-fluoro-phenyl)-2-ethyl-butyronitrile]",6 nM
20,"COc1ccc(CCC2(C3CCCC3)CC(O)=C(Cc3ccc(-c4csnn4)cc3)C(=O)O2)cc1Cl (centres unmarked) [B(05), 6-[2-(3-Chloro-4-methoxy-phenyl)-ethyl]-6-cyclopentyl-4-hydroxy-3-(4-[1,2,3]thiadiazol-4-yl-benzyl)-5,6-dihydro-pyran-2-one]",130 nM
21,"O=C1CC(=O)OC(CCc2ccc(-c3nnc(-c4ccccc4)o3)cc2)(C2CCCC2)C1 (centres unmarked) [A(50), 6-Cyclopentyl-6-{2-[4-(5-phenyl-[1,3,4]oxadiazol-2-yl)-phenyl]-ethyl}-dihydro-pyran-2,4-dione]",5900 nM
22,"N#CC1(c2ccc(CCC3(C4CCCC4)CC(=O)CC(=O)O3)cc2F)CCC1 (centres unmarked) [A(92), 1-{4-[2-(2-Cyclopentyl-4,6-dioxo-tetrahydro-pyran-2-yl)-ethyl]-2-fluoro-phenyl}-cyclobutanecarbonitrile]",1000 nM
23,"Cc1cc(C)n2nc(CC3=C(O)CC(CCc4ccc(C5(C#N)CC5)c(Cl)c4)(C4CCCC4)OC3=O)nc2n1 (racemic) [A(200), 1-(2-Chloro-4-{2-[2-cyclopentyl-5-(5,7-dimethyl-[1,2,4]triazolo[1,5-a]pyrimidin-2-ylmethyl)-4-hydroxy-6-oxo-3,6-dihydro-2H-pyran-2-yl]-ethyl}-phenyl)-cyclopropanecarbonitrile]",5 nM
